Each cell line was assayed with O=c1ncccn1[C@@H]1O[C@H](CO)[C@@H](O)[C@H]1O [Zebularine] + CCNC(=O)c1noc(-c2cc(C(C)C)c(O)cc2O)c1-c1ccc(CN2CCOCC2)cc1 [Luminespib] (partner 0.01 µM) (assay: relative viability (nuclei count vs DMSO), 5 days (fraction); higher = more cells survive). Details: first compound 100 µM.
Method in brief: (§1)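 Lung cancer cell lines were pin-tool dosed in 1536-well plates on the day after seeding, with either a lone drug or a fixed anchor-drug dose plus five library-drug doses (not always all listed) in √10 steps. Nuclei were counted on 4× images after 5 days. Relative viability is the ratio of treated-well to vehicle-well nuclei counts, with each value a median of duplicate plates.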
NCI-H650 gave a relative viability of 0.224. Work on PC-3 [JPC-3] yielded a relative viability of 0.493.

These cell lines were tested with O=c1ncccn1[C@@H]1O[C@H](CO)[C@@H](O)[C@H]1O [Zebularine] + C[C@]1(O)C[C@@H](c2nc(-c3ccc4ccc(-c5ccccc5)nc4c3)c3c(N)nccn32)C1 [Linsitinib] (partner 1 µM) in the same assay as above. Details: first compound 1 µM.
Method in brief: as §1
Cell Line NCI-H2228 has a relative viability of 0.616. Cell Line NCI-H1792 has a relative viability of 0.571. In the case of NCI-H1355, the relative viability is reported as 1. For NCI-H3122, the relative viability was 1.13. In the case of NCI-H1437, the relative viability is reported as 1.18. Work on NCI-H1755 yielded a relative viability of 0.722. For NCI-H2023, the relative viability was 0.664. HCC-15 showed a relative viability of 0.983. With NCI-H1793 the relative viability was 0.882. With PC-14 the relative viability was 1.07. Cell Line EKVX has a relative viability of 1.16. LC-2-ad gave a relative viability of 0.924. With NCI-H1944 the relative viability was 1.34. For NCI-H1975, the relative viability was 1.01. In the case of RERF-LC-KJ, the relative viability is reported as 0.99. Work on NCI-H358 yielded a relative viability of 0.796. NCI-H650 showed a relative viability of 0.931. For PC-3 [JPC-3], the relative viability was 1.05.

Same assay, conditions: first compound 3.162 µM
NCI-H2228 showed a relative viability of 0.666. NCI-H1792 showed a relative viability of 0.441. With NCI-H1355 the relative viability was 0.769. NCI-H3122 gave a relative viability of 1.09. Work on NCI-H1437 yielded a relative viability of 1.2. In the case of NCI-H1755, the relative viability is reported as 1.01. NCI-H2023 showed a relative viability of 0.689. In the case of HCC-15, the relative viability is reported as 0.883. For NCI-H1793, the relative viability was 0.978. PC-14 gave a relative viability of 0.996. EKVX gave a relative viability of 1.01. With LC-2-ad the relative viability was 0.844. NCI-H1944 gave a relative viability of 1.14. NCI-H1975 gave a relative viability of 0.861. For RERF-LC-KJ, the relative viability was 0.916. NCI-H358 gave a relative viability of 0.822. Cell Line NCI-H650 has a relative viability of 0.755. With PC-3 [JPC-3] the relative viability was 0.956.

Same assay, conditions: first compound 10 µM
For NCI-H2228, the relative viability was 0.514. Cell Line NCI-H1792 has a relative viability of 0.541. NCI-H1355 was tested, and the relative viability was 0.752. Cell Line NCI-H3122 has a relative viability of 0.848. NCI-H1755 showed a relative viability of 0.844. NCI-H2023 was tested, and the relative viability was 0.604. Work on HCC-15 yielded a relative viability of 0.615. Cell Line NCI-H1793 has a relative viability of 0.365. Work on PC-14 yielded a relative viability of 0.281. For LC-2-ad, the relative viability was 0.591. NCI-H1944 was tested, and the relative viability was 0.979. NCI-H1975 gave a relative viability of 0.582. Cell Line NCI-H358 has a relative viability of 0.469. With NCI-H650 the relative viability was 0.467. Work on PC-3 [JPC-3] yielded a relative viability of 0.843.

Same assay, conditions: first compound 31.62 µM
Cell Line NCI-H2228 has a relative viability of 0.509. In the case of NCI-H1792, the relative viability is reported as 0.267. NCI-H1355 gave a relative viability of 0.513. NCI-H3122 was tested, and the relative viability was 1.06. With NCI-H1437 the relative viability was 0.989. With NCI-H1755 the relative viability was 1. Work on NCI-H2023 yielded a relative viability of 0.63. For HCC-15, the relative viability was 0.773. With NCI-H1793 the relative viability was 0.464. PC-14 was tested, and the relative viability was 0.143. EKVX gave a relative viability of 1.15. With LC-2-ad the relative viability was 0.496. For NCI-H1944, the relative viability was 1.19. Cell Line NCI-H1975 has a relative viability of 0.456. Cell Line RERF-LC-KJ has a relative viability of 1.01. In the case of NCI-H358, the relative viability is reported as 0.516. NCI-H650 gave a relative viability of 0.43. Cell Line PC-3 [JPC-3] has a relative viability of 0.856.

Same assay, conditions: first compound 100 µM
With NCI-H2228 the relative viability was 0.409. NCI-H1792 showed a relative viability of 0.296. Cell Line NCI-H1355 has a relative viability of 0.283. NCI-H3122 gave a relative viability of 1.04. Work on NCI-H1437 yielded a relative viability of 0.342. In the case of NCI-H1755, the relative viability is reported as 0.506. NCI-H2023 showed a relative viability of 0.303. HCC-15 gave a relative viability of 0.251. NCI-H1793 showed a relative viability of 0.197. In the case of PC-14, the relative viability is reported as 0.179. EKVX showed a relative viability of 0.979. LC-2-ad was tested, and the relative viability was 0.157. In the case of NCI-H1944, the relative viability is reported as 0.784. NCI-H1975 was tested, and the relative viability was 0.271. RERF-LC-KJ gave a relative viability of 1.03. In the case of NCI-H358, the relative viability is reported as 0.26. NCI-H650 showed a relative viability of 0.374. With PC-3 [JPC-3] the relative viability was 0.492.
